Assays:
[1] = tested on: PPRE (PPARδ activation); assay: PPREx3-luciferase reporter assay; format: cell-based, human; conditions: HUVEC, 24 h
Method: Primary cultured human umbilical vein endothelial cells (HUVEC) and human aortic endothelial cells (HAEC) were obtained from Kurabo Co. Ltd. (Tokyo, Japan) and were cultured in EGM-2 growth medium supplemented with 2% fetal bovine serum (FBS) and a mixture of growth factors according to the supplier's instructions. Total RNA from the cells in culture was prepared with Isogen (Nippon Gene, Tokyo, Japan). Human embryonic kidney HEK-293 cells were cultured in DMEM containing 10% FBS, 2 mM L-glutamine, 100 U/ml penicillin and […] streptomycin as described previously (Hatae et al., J. Biol. Chem. (2001) 276: 46260-7). […] HEK-293 cells were transfected with DNA using lipofectAMINE (Invitrogen, Carlsbad, Calif.) as described previously (Hatae et al., J. Biol. Chem. (2001) 276: 46260-7). Human vascular endothelial cells were transfected with TransIT LT-1 (PanVera Co., Madison, Wis.). Transfections were performed at a ratio of 1 μg of DNA to 3.0 μl of the reagents, and cells were incubated in serum-free EGM-2 at 37° C. for 5 h. Subsequently, cells were grown in fresh EGM-2 containing 2% FBS and a mixture of growth factors for 12 h before analysis. For reporter assay, human vascular endothelial cells (1.2×10^4 cells/cm^2) were cotransfected with 0.2 μg of the PPREx3-luciferase reporter vector and 0.1 μg of β-galactosidase expression vector by use of TransIT LT-1. After 17 h of transfection, cells were washed with PBS, incubated in EGM-2 containing 2% FBS and cPGI (0-100 μM) for 24 h at 37° C., and subjected to luciferase assay as described previously (Hatae et al., J. Biol. Chem. (2001) 276: 46260-7). The luciferase activity of the extract was normalized to β-galactosidase activity.

[2] = tested on: adhesion between human vascular endothelial cells and monocytic leukocyte U937 cells; assay: Adherence assay of U937 cells to endothelial monolayers; format: cell-based; conditions: HUVEC
Method: HUVEC (2.5×10^4 cells/cm^2) were cultured in 12-well plates. After 24 h, confluent monolayers were used for adherence assays. Monolayers were preincubated in EGM-2 containing 2% FBS, 0 or 10 ng/ml TNF-α, 0 or 10 ng/ml IL-13 and 0 or 10 μM cPGI with or without anti-IL-13 monoclonal antibody (0.5 μg/ml) at 37° C. for 0 to 24 h. Human monocyte leukocyte U937 cells were cultured in RPMI 1640 (Gibco-Invitrogen) containing 10% FBS, 100 U/ml penicillin and […] streptomycin , labeled with 2.5 μM calcein-AM (Molecular Probes, Eugene, Oreg.) at room temperature for 45 min, washed and resuspended in serum-free EGM-2. The calcein-labeled U937 cells (8×10^4 cells/well) were added to pretreated endothelial cells and incubated with cPGI (0, 10 μM), recombinant IL-13 (0, 10 ng/ml) and anti-IL-13 monoclonal antibody (0, 0.5 μg/ml). U937 cells were allowed to adhere to pretreated endothelial cells for 30 min at 37° C. Adherence was assessed with a fluorescence image analyzer (FLA-2000; Fujifilm, Tokyo, Japan). Plates were scanned before and after washing for total and adherent cells, respectively, and relative adherence was calculated (fold of control).

CCCCC[C@H](O)/C=C/[C@@H]1[C@H]2C/C(=C/CCCC(=O)O)C[C@H]2C[C@H]1O [cPGI, carbaprostacyclin]
luciferase activity of PPRE reporter, exogenous cPGI added to TNF-α ([1]; TNF-α 0-10 ng/ml with cPGI 0, 2 or 10 μM, dose-dependent, FIG. 4B): enhanced
luciferase activity of reporter vector containing PPRE ([1]; cPGI 0, 1, 10 and 100 μM, FIG. 1C): dose-dependent
TNF-α-induced monocytic leukocyte-endothelial cell adhesion ([2]; TNF-α 10 ng/ml plus antibody 0.5 μg/ml, cPGI 10 μM or IL-13 10 ng/ml, 24 h, FIG. 4D lanes 3-5): inhibited
adhesion over time, TNF-α pretreatment in the presence of cPGI ([2]; TNF-α 10 ng/ml, cPGI 10 μM, 0 h to 24 h, FIG. 4E): dramatically inhibited
